Assay results published in the supplement of paper PMC10307832.

Key:
Assay in all cases: relative viability (nuclei count vs DMSO), 5 days (fraction); higher = more cells survive
[1] = compound: CC1=C(C(=O)N2C=CSC2=N1)CCN3CCC(=C(C4=CC=CC=C4)C5=CC=C(C=C5)F)CC3 + NC(=O)Nc1cc(-c2cccc(F)c2)sc1C(=O)N[C@H]1CCCNC1 [AZD7762] (partner 0.2 µM)
Method in brief: (§1)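 Lung cancer cell lines in 1536-well plates got either a single drug or a fixed anchor-drug dose together with five library-drug doses (not always all listed) in √10 steps, by pin tool, on the day after seeding. Nuclei were counted after 5 days, and relative viability is the treated-to-vehicle ratio of nuclei counts. Values are medians of duplicate plates.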

[2] = compound: CC1=C(C(=O)N2C=CSC2=N1)CCN3CCC(=C(C4=CC=CC=C4)C5=CC=C(C=C5)F)CC3 + Nc1ncn([C@H]2C[C@H](O)[C@@H](CO)O2)c(=O)n1 [Decitabine] (partner 2 µM)
Method in brief: as §1

[3] = compound: CC1=C(C(=O)N2C=CSC2=N1)CCN3CCC(=C(C4=CC=CC=C4)C5=CC=C(C=C5)F)CC3 + CS(=O)(=O)CCNCc1ccc(-c2ccc3ncnc(Nc4ccc(OCc5cccc(F)c5)c(Cl)c4)c3c2)o1 [Lapatinib] (partner 2 µM)
Method in brief: as §1

[4] = compound: CC1=C(C(=O)N2C=CSC2=N1)CCN3CCC(=C(C4=CC=CC=C4)C5=CC=C(C=C5)F)CC3 + O=C(c1cc(Cc2n[nH]c(=O)c3ccccc23)ccc1F)N1CCN(C(=O)C2CC2)CC1 [Olaparib] (partner 8 µM)
Method in brief: as §1

Row | Cell Line | relative viability ([1]; first compound 0.08 µM) | relative viability ([1]; first compound 0.253 µM) | relative viability ([1]; first compound 0.8 µM) | relative viability ([1]; first compound 2.53 µM) | relative viability ([1]; first compound 8 µM) | relative viability ([2]; first compound 0.08 µM) | relative viability ([2]; first compound 0.253 µM) | relative viability ([2]; first compound 0.8 µM) | relative viability ([2]; first compound 2.53 µM) | relative viability ([2]; first compound 8 µM) | relative viability ([3]; first compound 0.08 µM) | relative viability ([3]; first compound 0.253 µM) | relative viability ([3]; first compound 0.8 µM) | relative viability ([3]; first compound 2.53 µM) | relative viability ([3]; first compound 8 µM) | relative viability ([4]; first compound 0.08 µM) | relative viability ([4]; first compound 0.253 µM) | relative viability ([4]; first compound 0.8 µM) | relative viability ([4]; first compound 2.53 µM) | relative viability ([4]; first compound 8 µM)
1 | EKVX | 0.602 | 0.753 | 0.808 | 0.553 | 0.641 | 0.345 | 0.335 | 0.376 | 0.366 | 0.386 | 0.173 | 0.227 | 0.194 | 0.19 | 0.231 | 0.83 | 0.868 | 0.922 | 0.87 | 0.729
2 | EMC-BAC-2 | 1.18 | 0.93 | 1.01 | 1.13 | 1.01 | 1.14 | – | 1.01 | 1.03 | 0.906 | 0.744 | 0.924 | 0.89 | 0.877 | 0.773 | 0.46 | 0.468 | 0.468 | 0.522 | 0.46
3 | EPLC-272H | 0.45 | 0.198 | 0.182 | 0.211 | 0.179 | 0.431 | 0.312 | 0.37 | 0.396 | 0.376 | – | 0.921 | 0.809 | 1.09 | 0.873 | 0.693 | – | 0.911 | 0.758 | 0.742
4 | H3255 | 0.832 | 0.929 | 0.907 | 0.955 | 0.72 | 0.688 | 0.549 | 0.521 | 0.664 | 0.495 | 0.221 | 0.32 | 0.249 | 0.309 | 0.246 | 0.503 | 0.63 | 0.548 | 0.6 | 0.504
5 | HARA | 0.371 | 0.347 | 0.281 | 0.296 | 0.303 | 0.639 | 0.664 | 0.526 | 0.515 | 0.427 | 1.01 | 1.06 | 0.873 | 0.82 | 0.625 | 0.761 | 0.779 | 0.821 | 0.755 | 0.774
6 | HCC-15 | 1.18 | 1.43 | 1.28 | 1.15 | 1.09 | 0.831 | 0.651 | 0.601 | 0.642 | 0.604 | 0.961 | 0.667 | 0.885 | 1.02 | 0.73 | 0.777 | 0.782 | 0.716 | 0.736 | 0.643
7 | HCC-44 | 1.04 | 1.04 | 1.08 | 1.17 | 1.06 | 1.03 | 1.09 | 0.995 | 1.02 | 0.985 | 1.07 | 0.83 | 1 | 1.07 | 0.787 | 1.01 | 1.08 | 1.03 | 1.13 | 0.643
8 | HCC-78 | 0.691 | 0.71 | 0.58 | 0.662 | 0.567 | 0.769 | 0.803 | 0.765 | 0.683 | 0.536 | 0.851 | 0.784 | 0.731 | 0.779 | 0.51 | 0.663 | 0.872 | 0.944 | 0.921 | 0.608
